The source of these data is patent US4684650A, “Antihypertensive fluorophenylindanyl imidazolidinoneethylpiperazines” (priority 1984, dated 1987).

Like-named read-outs stand apart in the source and are kept apart here.

The term IC50 denotes the concentration needed to halve the response being measured.

For experiment [1], the system named is methylphenidate induced stereotypies. In words: Methylphenidate Antagonism. The experiment is classed as in vivo, mice. Conditions: Mus musculus, ip, read-out: MePh antg. ED50, i.p., mice, 2 hours before methylphenidate 60 mg/kg s.c. How it is done:
The experiments were made as described by Pedersen and Christensen (1972) Acta Pharmacol. et Toxicol. 31, 488-496.--Briefly, test compounds or saline were injected i.p. 2 hours before methylphenidate, 60 mg/kg s.c. 3 pairs of mice were used for each dose level. After methylphenidate injection the mice were placed in observation cages for one hour. The cages were placed on corrugated paper, the corrugation facing upwards.

Experiment [2] concerns spontaneous hypertensive rats (SHR). Kind of experiment: Antihypertensive effect in spontaneous hypertensive rats (SHR). It is filed as in vivo. To be noted: for change in vivo at 5 mg/kg / ED10: Rattus norvegicus, ip; for change in vivo at 5 mg/kg: 1 h. On the procedure:
Antihypertensive effect in spontaneous hypertensive rats (SHR)
The femoral artery of male SHR is cannulated in anaestesia for blood pressure recordings. After a stabilization period of 11/2 h after discontinuation of the anaesthesia initial blood pressure curves are recorded and the systolic (SAP)/diastolic (DAP) pressure determined (-20, -10, 0, min. p.i.) Test substance is injected i.p. and the pressure curve recorded for one hour. The change in SAP/DAP is calculated in percent at mean initial values at different times (10, 20, 30, 40, 50 and 60 minutes after injection). At least two SHR are used per dose level. The maximum change is used for estimation of the drug effect.

Experiment [3] concerns phenylephrine pressor responses. In words: Antagonism to phenylephrine pressor responses in pithed rats. It is filed as in vivo. Conditions: for ED50: Rattus norvegicus, iv, read-out: Effects on pressor response of Phenylephrine, ED50; for Phenylephr. antg./5-HT antg. (ratio): pithed rats, ratio of phenylephrine ED50 to 5-HT ED50. On the procedure:
(§1) The rat is anaesthetized with ether, tracheotomized, artificial respired and pithed. The knitting-needle is introduced through the right orbita into the cranial cavity and passed through foramen magnum into the spinal canal as far as possible. The spinal cord is destroyed by turning the needle. After vagotomi both carotides are ligated and a catheter placed in the right one for pressure recording. The rat is adrenalectomized. […] The initial and post medication mean pressor effect is calculated, and the mean pressor effect is calculated as % of the initial value. Two to five preparations are employed for each dose level. The ED50 is determined.

For experiment [4], the system named is 1-5-HTP-induced head shakes. Kind of experiment: 1-5-HTP-induced head shakes. The experiment is classed as in vivo. Conditions: Rattus norvegicus, sc, rats, 1-5-HTP 75 mg/kg i.p. after citalopram; read-out: 1-5-HTP-antg. ED50. On the procedure:
The rats were pretreated subcutaneously with test compound or saline simultaneously with or 90 min before injection of citalopram (10 mg/kg s.c.).
Each group consisted of 4-12 rats.

The next experiment has as its system 5-HT pressor responses. Kind of experiment: Antagonism to 5-HT pressor responses in pithed rats. It is filed as in vivo. Conditions: Rattus norvegicus, iv; for change in vivo at 0.02 mg/kg: read-out: Effects on pressor response of 5-HT, % eff. of 0.02 mg/kg, pithed rats, 0.02 mg/kg, jugular vein; for ED50: read-out: Effects on pressor response of 5-HT, ED50, pithed rats, jugular vein. How it is done: as §1

The next experiment concerns the target T1, 5-HT2 receptors (Rattus norvegicus, UniProt P14842).
T1 construct: Rat whole cortex was homogenized by an Ultra Turrax homogenizer; from tissue; host or cells: rat whole cerebral cortex, crude washed membranes
In words: 3H-spiroperidol binding to 5-HT2 receptors. Conditions: rat whole cortex, 0.5 nM 3H-spiroperidol, 0.3 μM sulpiride; read-out: 3H-SPI binding 5-HT2 IC50. How it is done: ^3 H-spiroperidol binding to 5-HT2 receptors.
Rat whole cortex was homogenized by an Ultra Turrax homogenizer in 100 vol. of 50 mM Tris buffer pH 7.7. The homogenate was centrifuged at 20,000 g for 10 minutes at 4° C. The pellet was rehomogenized in another volume of buffer and centrifuged as mentioned above. The final pellet was rehomogenized in 50 mM Tris buffer pH 7.7 containing 120 mM NaCl, 5 mM KCl, 2 mM CaCl2 and 1 mM MgCl2 (ion mix) in a volume corresponding to 12.5 mg original tissue per ml.
Test drugs were dissolved in water; ^3 H-spiroperidol (NEN, 28-30 Ci/mmol) was diluted in 3 μM sulpiride, and 800 μl membrane suspension were added. Final concentration of ligand and sulpiride were 0.5 nM and 0.3 μM, respectively. The samples were incubated at 37° C. for 10 min. The samples were then filtered under vacuum through Whatman GF/B glass-fiber filters. The tubes were then rinsed with 5 ml incubation buffer, which was poured on the filters. The filters were finally washed twice with 5 ml buffer and placed in counting vials. After addition of 5 ml scintillation fluid (Lumagel) radioactivity was estimated by liquid scintillation counting. Non-specific binding was obtained by adding Mianserin (1 μM) to separate samples. Each drug was tested at least twice at 5 concentrations in triplicate. IC50-values were determined from log concentration-response curves.--The presence of sulpiride excluded binding to dopamine D-2 receptors.

Where [5] appears, read: read-out: Antihypertensive eff. SHR, max eff. in % of 5 mg/kg ip, DAP, 5 mg/kg ip, diastolic pressure (DAP), max change within one hour.
The mark [6] stands for this setting: read-out: Antihypertensive eff. SHR, max eff. in % of 5 mg/kg ip, SAP, 5 mg/kg ip, systolic pressure (SAP), max change within one hour.
Setting [7] is: read-out: Antihypertensive eff. SHR, ED10 DAP.
[8] abbreviates: read-out: Antihypertensive eff. SHR, ED10 SAP.

T1 sequence (P14842 whole entry): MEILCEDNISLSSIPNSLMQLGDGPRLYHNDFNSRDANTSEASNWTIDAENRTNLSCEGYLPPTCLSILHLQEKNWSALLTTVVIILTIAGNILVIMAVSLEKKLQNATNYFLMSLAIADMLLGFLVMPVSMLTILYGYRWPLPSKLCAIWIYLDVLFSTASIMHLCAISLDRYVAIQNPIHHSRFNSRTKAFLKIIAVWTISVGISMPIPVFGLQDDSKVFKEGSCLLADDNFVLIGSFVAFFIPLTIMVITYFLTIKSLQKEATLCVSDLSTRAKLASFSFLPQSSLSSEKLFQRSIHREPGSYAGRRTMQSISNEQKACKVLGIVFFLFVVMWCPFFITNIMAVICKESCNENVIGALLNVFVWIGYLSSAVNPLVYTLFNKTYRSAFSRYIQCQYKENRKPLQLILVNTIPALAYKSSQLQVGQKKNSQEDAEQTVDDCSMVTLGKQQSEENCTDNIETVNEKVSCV

Turning to `Cc1ccc2c(c1)[C@H](N1CCN(CCN3CCNC3=O)CC1)C[C@H]2c1ccc(F)cc1` (relative stereo) [compound 4, Trans-1-[3-(4-fluorophenyl)-6-methylindan-1-yl]-4-[2-(2-imidazolidinon-1-yl)ethyl]piperazine], the ED50 came out at 27 µmol/kg in experiment [1], 2.02 µmol/kg in experiment [3], 0.13 µmol/kg in experiment [4] and 0.017 µmol/kg in the experiment on 5-HT pressor responses. Also, the change in vivo at 5 mg/kg in experiment [2] (setting [5]) is -32%; in experiment [2] (setting [6]) it was -27%. Besides, the values for the ED10 in experiment [2] (setting [7]) and in experiment [2] (setting [8]) were 2.4 µmol/kg and 3.3 µmol/kg, respectively. Further, in experiment [3], the “Phenylephr. antg./5-HT antg. (ratio)” value was 119. In addition, the change in vivo at 0.02 mg/kg in the experiment with 5-HT pressor responses was -73%. Moreover, the IC50 on 5-HT2 receptors is 23 nM.

Consider `Cc1ccc2c(c1)[C@H](N1CCN(CCN3CCOC3=O)CC1)C[C@H]2c1ccc(F)cc1` (relative stereo) [compound 9], for which the ED50 in experiment [1] turned out to be 29 µmol/kg; in experiment [3] it was 1.51 µmol/kg; in experiment [4] it was 0.45 µmol/kg; in the experiment on 5-HT pressor responses, 0.02 µmol/kg. In addition, the values for the change in vivo at 5 mg/kg in experiment [2] (setting [5]) and in experiment [2] (setting [6]) were -41% and -32%, respectively. The ED10 was 3.5 µmol/kg in experiment [2] (setting [7]) and 4.5 µmol/kg in experiment [2] (setting [8]). Further, the “Phenylephr. antg./5-HT antg. (ratio)” value in experiment [3] amounted to 76. Besides, in the experiment with 5-HT pressor responses, the change in vivo at 0.02 mg/kg was -73%. On 5-HT2 receptors, the IC50 was found to be 21 nM.

Take `CSc1ccc2c(c1)[C@H](N1CCN(CCN3CCOC3=O)CC1)C[C@H]2c1ccc(F)cc1` (relative stereo) [compound 10, Trans-1-[3-(4-fluorophenyl)-6-methylthioindan-1-yl]-4-[2-(2-oxazolidinon-3-yl)ethyl]piperazine]: the ED50 in experiment [1] is over 76 µmol/kg; in experiment [3], 9.4 µmol/kg; in experiment [4], 2.4 µmol/kg; in the experiment on 5-HT pressor responses it was 0.034 µmol/kg. Moreover, the change in vivo at 5 mg/kg in experiment [2] (setting [5]) was -22%; in experiment [2] (setting [6]) it was -14%. The “Phenylephr. antg./5-HT antg. (ratio)” value in experiment [3] was found to be 276. Moreover, the change in vivo at 0.02 mg/kg in the experiment with 5-HT pressor responses is -57%. On 5-HT2 receptors, the IC50 was 6.6 nM.

Take `O=C1NCCN1CCCN1CCN([C@@H]2C[C@@H](c3ccc(F)cc3)c3ccc(F)cc32)CC1` (relative stereo) [compound 14]: the ED50 in experiment [1] amounted to 56 µmol/kg; in experiment [3], 2.68 µmol/kg; in experiment [4], 2 µmol/kg; in the experiment with 5-HT pressor responses it was 0.031 µmol/kg. Further, the change in vivo at 5 mg/kg in experiment [2] (setting [5]) is -19%; in experiment [2] (setting [6]), -12%. The “peripheral or central action” value in experiment [2] (in words) is given as “mainly possess periferal action”. For the same compound, the “Phenylephr. antg./5-HT antg. (ratio)” value in experiment [3] is recorded as 86. Also, in the experiment on 5-HT pressor responses, the change in vivo at 0.02 mg/kg was -68%. The IC50 at 5-HT2 receptors stood at 6.3 nM.

As to `Fc1ccc([C@@H]2C[C@@H](N3CCN(CCN4CCNC4=S)CC3)c3cc(F)ccc32)cc1` (relative stereo) [compound 24, Trans-1-[3-(4-fluorophenyl)-6-fluoroindan-1-yl]-4-[2-(2-imidazolidinthion-1-yl)ethyl]piperazine], the ED50 is 25 µmol/kg in experiment [1], 3.7 µmol/kg in experiment [3], 0.13 µmol/kg in experiment [4] and 0.01 µmol/kg with 5-HT pressor responses. The change in vivo at 5 mg/kg in experiment [2] (setting [5]) was -20%; in experiment [2] (setting [6]), -10%. In addition, in experiment [3], the “Phenylephr. antg./5-HT antg. (ratio)” value worked out at 370. Besides, the change in vivo at 0.02 mg/kg in the experiment on 5-HT pressor responses was -88%. The IC50 on 5-HT2 receptors is 5.2 nM.
